Like-named read-outs stand apart in the source and are kept apart here.
Tests used:
blood glucose = assay: Test for hypoglycemic activity in fasted female rats (oral); format: in vivo; conditions: for change in vivo at 0.5 mg/kg / change in vivo at 1 mg/kg: Rattus norvegicus, po, read-out: Change in glucose content compared with control
Procedure: Blood samples were taken immediately before the administration of the test compound and 1, 2, 3 and 4 hours afterwards, in each case from the retroorbital Venous plexus. 50 μl of each sample were deproteinated with 0.5 ml of 0.33 N perchloric acid and centrifuged. The glucose in the supernatant fluid was measured using the hexokinase method with the aid of an analytical photometer. The statistical evaluation was made using the t-test according to Student with p=0.05 as the limit of significance.

blood sugar = assay: Blood sugar-lowering effect of the enantiomers in fasted female rats (oral); format: in vivo; conditions: 1.0 mg/kg p.o.
Procedure: The substances to be investigated were suspended in 1.5% methylcellulose immediately before the start of the test and administered into the oesophagus. […] Glucose was measured in the supernatant by the hexokinase method using an analytical photometer. The statistical evaluation was carried out using the Student's t-test with p=0.05 as the limit of significance. Table 1 which follows contains the statistically significant values as percentage deviations from the control: […]

clinical = conditions: human, plasma, 1 mg
Procedure: More specifically, the studies which follow were carried out on healthy male volunteers in whom the levels of glucose and active substance in the course of time were determined:
In the interests of more precise clarification, study 5 was carried out (randomised, open, crossover). […] 2 hours after administration a standard breakfast (B) was eaten, 5 hours after administration a standard lunch (L) was eaten and 10 hours after administration a standard dinner (D) was eaten. Blood samples were taken at different times. The glucose concentrations were measured in the plasma as in study 1. […] The plasma concentrations of AG-EE 624 ZW were calculated as the difference between the two concentrations found:

Row | Structure (SMILES) | change in vivo at 0.5 mg/kg (blood glucose; 0.5 mg/kg, 1 h) [%] | change in vivo at 0.5 mg/kg (blood glucose; 0.5 mg/kg, 2 h) [%] | change in vivo at 0.5 mg/kg (blood glucose; 0.5 mg/kg, 3 h) [%] | change in vivo at 0.5 mg/kg (blood glucose; 0.5 mg/kg, 4 h) [%] | change in vivo at 1 mg/kg (blood glucose; 1 mg/kg, 1 h) [%] | change in vivo at 1 mg/kg (blood glucose; 1 mg/kg, 2 h) [%] | change in vivo at 1 mg/kg (blood glucose; 1 mg/kg, 3 h) [%] | change in vivo at 1 mg/kg (blood glucose; 1 mg/kg, 4 h) [%] | also measured
1 | CCCC(NC(=O)Cc1ccc(C(=O)O)c(OCC)c1)c1ccccc1N1CCCCC1 (single isomer, unassigned; (+)) [E, (+)-2-ethoxy-4-[N-{1-(2-piperidino-phenyl)-1-butyl}-aminocarbonylmethyl]-benzoic acid] | -40 | -39 | -36 | -36 |  |  |  |  | 
2 | CCOc1cc(CC(=O)N[C@H](CC(C)C)c2ccccc2N2CCCCC2)ccc1C(=O)O [AG-EE 624 ZW, (R)(-)-2-ethoxy-4-[N-[1-(2-piperidino-phenyl)-3-methyl-1-butyl]aminocarbonylmethyl]-benzoic acid] |  |  |  |  |  |  |  |  | Glucose, percentage deviation from control (blood sugar; 1 h): n.s.; Glucose, percentage deviation from control (blood sugar; 2 h): n.s.; Glucose, percentage deviation from control (blood sugar; 3 h): n.s.; Glucose, percentage deviation from control (blood sugar; 4 h): n.s.; MRT (clinical; iv): 3.3 ± 1.7 h; clearance (clinical; iv): 75 ± 34 mL/min; bioavailability (clinical; po): 83 ± 32%
3 | CCCC(NC(=O)Cc1ccc(C(=O)O)c(OCC)c1)c1ccccc1N1CCCCC1 (stereo not drawn) [B, 2-ethoxy-4-[N-{1-(2-piperidino-phenyl)-1-butyl}-aminocarbonylmethyl]-benzoic acid] | -43 | -36 | -34 | -35 | -38 | -49 | -38 | -33 | 
4 | COc1cc(CC(=O)NC(c2ccccc2)c2ccccc2N2CCCCC2)ccc1C(=O)O (stereo not drawn) [C, 2-methoxy-4-[N-(α-phenyl-2-piperidino-benzyl)-aminocarbonymethyl]-benzoic acid] |  |  |  |  | -38 | -41 | -38 | -34 | 
5 | COc1cc(CC(=O)NC(C)c2ccccc2N2CCCCC2)ccc1C(=O)O (stereo not drawn) [Compound A, 2-methoxy-4-[N-{1-(2-piperidino-phenyl)-1-ethyl}-aminocarbonylmethyl]-benzoic acid] |  |  |  |  | -37 | -46 | -23 | -14 | 
6 | CCOc1cc(CC(=O)NC(C)c2ccccc2N2CCCCC2)ccc1C(=O)O (stereo not drawn) [F, 2-ethoxy-4-[N-{1-(2-piperidino-phenyl)-1-ethyl}-aminocarbonylmethyl]-benzoic acid] |  |  |  |  | -44 | -44 | -40 | -30 | 
7 | CCCC(NC(=O)Cc1ccc(C(=O)O)c(OCC)c1)c1ccccc1N1CCCC1 (stereo not drawn) [G, sodium 2-ethoxy-4-[N-{1-(2-pyrrolidino-phenyl)-1-butyl}-aminocarbonylmethyl]-benzoate] | -40 | -33 | -30 | -17 |  |  |  |  | 
8 | CCCC(NC(=O)Cc1ccc(C(=O)O)c(OCC)c1)c1ccccc1N1CCCCCC1 (stereo not drawn) [H, 2-ethoxy-4-[N-{1-(2-hexamethyleneimino-phenyl)-1-butyl}-aminocarbonylmethyl]-benzoic acid] | -42 | -34 | -18 |  |  |  |  |  | Change in glucose content compared with control (blood glucose; 0.5 mg/kg, 4 h): n.s.
9 | CCCC(NC(=O)Cc1ccc(C(=O)O)c(OC)c1)c1ccccc1N1CCCCC1 (stereo not drawn) [I, 2-methoxy-4-[N-{1-(2-piperidino-phenyl)-1-butyl}-aminocarbonylmethyl]-benzoic acid] | -42 | -39 | -37 | -30 |  |  |  |  | 
10 | CCCOc1cc(CC(=O)NC(CCC)c2ccccc2N2CCCCC2)ccc1C(=O)O (stereo not drawn) [K, 2-n-propoxy-4-[N-{1-(2-piperidino-phenyl)-1-butyl}-aminocarbonylmethyl]-benzoic acid] | -34 | -36 | -24 |  |  |  |  |  | Change in glucose content compared with control (blood glucose; 0.5 mg/kg, 4 h): n.s.
11 | CCCCC(NC(=O)Cc1ccc(C(=O)O)c(OCC)c1)c1ccccc1N1CCCCC1 (stereo not drawn) [L, 2-ethoxy-4-[N-{1-(2-piperidino-phenyl)-1-pentyl}-aminocarbonylmethyl]-benzoic acid] | -42 | -45 | -38 | -39 |  |  |  |  | 
12 | CCOc1cc(CC(=O)NC(c2ccccc2)c2ccc(C)cc2N2CCCCC2)ccc1C(=O)O (stereo not drawn) [M, 2-ethoxy-4-[N-(4-methyl-α-phenyl1-2-piperidino-benzyl)-aminocarbonylmethyl]-benzoic acid] |  |  |  |  | -44 | -41 | -35 | -27 | 
13 | CCCC(NC(=O)Cc1ccc(CC#N)c(OCC)c1)c1ccccc1N1CCCCC1 (stereo not drawn) [O, [2-ethoxy-4-[N-(1-(2-piperidino-phenyl)-1-butyl)-aminocarbonylmethyl]-phenyl]-acetonitrile] |  |  |  |  | -29 | -37 | -35 | -34 | 
14 | CCOc1cc(CC(=O)NC(c2ccccc2)c2ccccc2N2CCCCC2)ccc1CC#N (stereo not drawn) [P, [2-ethoxy-4-[N-(α-phenyl-2-piperidino-benzyl)-aminocarbonylmethyl]-phenyl]acetonitrile] |  |  |  |  | -12 | -10 | -14 | -14 | 
15 | CCOc1cc(CC(=O)NC(CC2CCCCC2)c2ccccc2N2CCCCC2)ccc1C(=O)O (stereo not drawn) [Q, 2-ethoxy-4-[N-(α-cyclohexylmethyl-2-piperidino-benzyl)-aminocarbonyl-methyl]-benzoic acid] | -22 | -47 | -45 | -45 |  |  |  |  | 
16 | CCOC(=O)C(NC(=O)Cc1ccc(C(=O)O)c(OCC)c1)c1ccccc1N1CCCCC1 (stereo not drawn) [R, 2-ethoxy-4-[N-(α-ethoxycarbonyl-2-piperidino-benzyl)-aminocarbonylmethyl]-benzoic acid] |  |  |  |  | -33 | -17 |  |  | Change in glucose content compared with control (blood glucose; 1 mg/kg, 3 h): n.s.; Change in glucose content compared with control (blood glucose; 1 mg/kg, 4 h): n.s.
17 | CCOc1cc(CC(=O)NC(C(=O)OC)c2ccccc2N2CCCCC2)ccc1C(=O)O (stereo not drawn) [S, 2-ethoxy-4-[N-(α-methoxycarbonyl-2-piperidino-benzyl)-aminocarbonylmethyl]-benzoic acid] |  |  |  |  | -42 | -35 | -28 | -18 | 
18 | CCOc1cc(CC(=O)NC(C(=O)OC(C)C)c2ccccc2N2CCCCC2)ccc1C(=O)O (stereo not drawn) [T, 2-ethoxy-4-[N-(α-isopropoxycarbonyl-2-piperidino-benzyl)-aminocarbonylmethyl]benzoic acid] |  |  |  |  | -36 | -21 | -18 |  | Change in glucose content compared with control (blood glucose; 1 mg/kg, 4 h): n.s.
19 | CCOc1cc(CC(=O)NC(CC2CC2)c2ccccc2N2CCCCC2)ccc1C(=O)O (stereo not drawn) [U, 2-ethoxy-4-[N-(α-cyclopropylmethyl-2-piperidino-benzyl)-aminocarbonylmethyl]benzoic acid] | -45 | -45 | -36 | -36 |  |  |  |  | 
20 | CCOc1cc(CC(=O)NC(CC2CCCO2)c2ccccc2N2CCCCC2)ccc1C(=O)O (stereo not drawn) [V, 2-ethoxy-4-[N-(α-(tetrahydrofuran-2-yl-methyl)-2-piperidino-benzyl)-aminocarbonylmethyl]benzoic acid] | -46 | -25 | -13 | -10 |  |  |  |  | 
21 | C=CCC(NC(=O)Cc1ccc(C(=O)O)c(OCC)c1)c1ccccc1N1CCCCC1 (stereo not drawn) [W, 2-ethoxy-4-[N-(1-(2-piperidino-phenyl)-3-buten-1-yl)-aminocarbonylmethyl]benzoic acid] | -42 | -39 | -28 | -35 |  |  |  |  | 
22 | C=C(C)CC(NC(=O)Cc1ccc(C(=O)O)c(OCC)c1)c1ccccc1N1CCCCC1 (stereo not drawn) [X, 2-ethoxy-4-[N-(1-(2-piperidino-phenyl)-3-methyl-3-buten-1-yl)-aminocarbonylmethyl]benzoic acid] | -44 | -41 | -31 | -28 |  |  |  |  | 
23 | C#CCC(NC(=O)Cc1ccc(C(=O)O)c(OCC)c1)c1ccccc1N1CCCCC1 (stereo not drawn) [Y, 2-ethoxy-4-[N-(1-(2-piperidino-phenyl)-3-butyn-1-yl)-aminocarbonylmethyl]benzoic acid] | -33 | -18 | -11 |  |  |  |  |  | Change in glucose content compared with control (blood glucose; 0.5 mg/kg, 4 h): n.s.
